Experimental data taken from US10729130B2, “Nematicidal compositions and methods of using them” (Eden Research plc, priority 2004, dated 2020).

Columns and labels:
Format in all cases: physicochemical
[1] = SAF Mannan loading of different terpenes and terpene mixtures; set-up: key to Free Terpene: +: “free terpene” refers to the visible presence of terpene in the centrifuged reaction mixture; −: The absence of free terpene indicates complete absorption of the terpene by the particles; key to Free Terpene: phase inversion remark: Inverted = Phase Inverted - solids floating on top - no free oil; W = white; Y = yellow; conditions: for Free Terpene: SAF Mannan 500 μl (250 mg/ml), overnight, room temperature; for Free Terpene: phase inversion remark: SAF Mannan 500 μl, second line of the Free Terpene cell; for Vol. loaded (maximal terpene loading in SAF Mannan): approximate maximal loading, volume of terpene emulsion absorbed by SAF Mannan; for % Loaded w/w (maximal terpene loading in SAF Mannan): ratio of amount of terpene loaded to amount of particle present (weight for weight)
Description: Increasing volumes of terpene emulsion were mixed with 250 mg/ml Baker's YP or 250 mg/ml SAF Mannan™ overnight at room temperature as shown in Tables 27 and 28. Samples were centrifuged at 14,000×g for 10 minutes and the appearance of free terpene floating on the aqueous layer was scored. The highest volume of terpene emulsion absorbed by Baker's YP or SAF Mannan™ as evidenced by the absence of free terpene was recorded as the volume of absorbed terpene emulsion. Colour of encapsulated terpenes in the pellet was recorded.
Percentage loaded represents a ratio of the amount of terpene loaded to the amount of particle present (weight for weight).

[2] = Terpene loading with surfactant, Tween-80:terpene ratio (free terpene score); set-up: key: Sl = slight; conditions: 250 mg/ml YP
Description: Samples were centrifuged at 14,000×g for 10 minutes and the appearance of free terpene floating on the aqueous layer was scored. The expression “free terpene” refers to the visible presence of terpene in the centrifuged reaction mixture. The absence of free terpene indicates complete absorption and encapsulation of the terpene by the YP. The highest volume of terpene absorbed by the YP, as evidenced by the absence of free terpene, was recorded as the maximal volume of absorbed terpene emulsion.

[3] = Screen of commercially available particles for terpene absorption (free terpene score); set-up: key: +: “free terpene” refers to the visible presence of terpene in the centrifuged reaction mixture; −: The absence of free terpene indicates complete absorption of the terpene by the particles; conditions: overnight
Description: The following protocol was performed to analyse the loading properties of different types of particles. The particles studied were Baker's Yeast Particles (Sigma Chemical Corp., St. Louis, Mo.), Nutrex™ Walls (Sensient Technologies, Milwaukee, Wis.), SAF-Mannan™ (SAF Agri, Minneapolis, Minn.), Nutricept Walls™ (Nutricepts Inc., Burnsville, Minn.), Levacan™ (Savory Systems International, Inc., Branchburg, N.J.) and WGP™ (Alpha-beta Technology, Inc. Worcester, Mass.).
The YP suspensions were prepared as follows: • Baker's yeast particle suspension (YP) was prepared by mixing 250 mg YP/ml 1% Tween 80. • Nutrex suspension was prepared by mixing 163 mg Nutrex YGP/ml 1% Tween 80. • SAF Mannan suspension was prepared by mixing 234 mg Biospringer YGP/ml 1% Tween 80. • Nutricepts suspension was prepared by mixing 99 mg Nutricepts YGP/ml 1% Tween 80. • Levacan suspension was prepared by mixing 217 mg Lev YGP/ml 1% Tween 80. • WGP suspension was prepared by mixing 121 mg WGP YGP/ml 1% Tween 80.
The packed volume of the above particles is identical which means that equal numbers of particles were assayed.
Loading reactions were set up as shown in Table 25 and left to incubate overnight. Samples were centrifuged at 14,000×g for 10 minutes and the appearance of free terpene floating on the aqueous layer and the color of the encapsulated terpenes in the pellet was scored. The highest volume of terpene absorbed by particles as evidenced by the absence of free terpene was recorded as the volume of absorbed terpene emulsion.

[4] = Terpene stability: yellow colored oxidation product (colour of encapsulated terpene pellet); set-up: key to Colour: W = white; Y = yellow; sl = slight; int = intermediate; key to Color: White, W; Yellow, Y; Very Yellow, VY; conditions: for Color: Table 26, scored at 24 hours
Description: Loading reactions were set up as shown in Table 25 and left to incubate overnight. Samples were centrifuged at 14,000×g for 10 minutes and the appearance of free terpene floating on the aqueous layer and the color of the encapsulated terpenes in the pellet was scored. The highest volume of terpene absorbed by particles as evidenced by the absence of free terpene was recorded as the volume of absorbed terpene emulsion. The reactions were incubated for 1, 3, 6, 9 and 24 hours at room temperature or 37° C. After incubation samples were centrifuged at 14,000×g for 10 minutes and the appearance of free terpene floating on the aqueous layer was scored. The highest volume of terpene absorbed by the particles as evidenced by the absence of free terpene was recorded as the volume of absorbed terpene emulsion. Colour of the encapsulated pellet was scored at 24 hours. Increasing volumes of terpene emulsion were mixed with 250 mg/ml Baker's YP or 250 mg/ml SAF Mannan™ overnight at room temperature as shown in Tables 27 and 28. Samples were centrifuged at 14,000×g for 10 minutes and the appearance of free terpene floating on the aqueous layer was scored. The highest volume of terpene emulsion absorbed by Baker's YP or SAF Mannan™ as evidenced by the absence of free terpene was recorded as the volume of absorbed terpene emulsion. Colour of encapsulated terpenes in the pellet was recorded.

[5] = terpene emulsion vol 15, 1% Tween-80 485 μl
[6] = terpene emulsion vol 37.5, 1% Tween-80 462.5 μl
[7] = terpene emulsion vol 75, 1% Tween-80 425 μl
[8] = terpene emulsion vol 112.5, 1% Tween-80 387.5 μl
[9] = terpene emulsion vol 450, 1% Tween-80 50 μl
[10] = Baker's 250 mg/ml, emulsion 125 μl L-carvone or 100 μl Citral
[11] = Levacan 217 mg/ml, emulsion 125 μl L-carvone or 100 μl Citral
[12] = Nutrex 163 mg/ml, emulsion 125 μl L-carvone or 100 μl Citral
[13] = Nutricepts 99 mg/ml, emulsion 125 μl L-carvone or 100 μl Citral
[14] = SAF Mannan 234 mg/ml, emulsion 125 μl L-carvone or 100 μl Citral
[15] = WGP 121 mg/ml, emulsion 125 μl L-carvone or 100 μl Citral
[16] = no particle, emulsion 125 μl L-carvone or 100 μl Citral in 1% Tween 80
[17] = Table 25, Baker's 250 mg/ml, overnight
[18] = Table 25, Levacan 217 mg/ml, overnight
[19] = Table 25, Nutrex 163 mg/ml, overnight
[20] = Table 25, Nutricepts 99 mg/ml, overnight
[21] = Table 25, SAF Mannan 234 mg/ml, overnight
[22] = Table 25, WGP 121 mg/ml, overnight
[23] = Table 27, Baker's YP, emulsion 15 μl
[24] = Table 27, Baker's YP, emulsion 37.5 μl
[25] = Table 27, Baker's YP, emulsion 112.5 μl
[26] = Table 27, Baker's YP, emulsion 150 μl
[27] = Table 27, Baker's YP, emulsion 225 μl
[28] = Table 27, Baker's YP, emulsion 450 μl
[29] = colour of encapsulated terpene in pellet, SAF Mannan 500 μl, terpene emulsion vol 15
[30] = colour of encapsulated terpene in pellet, SAF Mannan 500 μl, terpene emulsion vol 37.5
[31] = colour of encapsulated terpene in pellet, SAF Mannan 500 μl, terpene emulsion vol 75
[32] = colour of encapsulated terpene in pellet, SAF Mannan 500 μl, terpene emulsion vol 112.5
[33] = colour of encapsulated terpene in pellet, SAF Mannan 500 μl, terpene emulsion vol 150
[34] = colour of encapsulated terpene in pellet, SAF Mannan 500 μl, terpene emulsion vol 225
[35] = colour of encapsulated terpene in pellet, SAF Mannan 500 μl, terpene emulsion vol 450

CC(C)=CCCC(C)=CC=O [Citral, citral]
Free Terpene [1, 5]: −
Free Terpene [1, 6]: −
Free Terpene [1, 7]: −
Free Terpene [1, 8]: −
Free Terpene ([1]; terpene emulsion vol 225, 1% Tween-80 275 μl): +
Free Terpene [1, 9]: +
Free Terpene: phase inversion remark ([1]; terpene emulsion vol 150): Inverted
Free Terpene: phase inversion remark ([1]; terpene emulsion vol 225): Inverted
Free Terpene: phase inversion remark ([1]; terpene emulsion vol 450): Inverted
Vol. loaded (maximal terpene loading in SAF Mannan) [1]: 150 µL
% Loaded w/w (maximal terpene loading in SAF Mannan) [1]: 133% w/w
Free Terpene ([2]; Citral emulsion 113 μl, 10% Tween-80 33 μl): Sl
Free Terpene ([2]; Citral emulsion 113 μl, 10% Tween-80 100 μl): Sl
Free Terpene [3, 10]: −
Free Terpene [3, 11]: +
Free Terpene [3, 12]: −
Free Terpene [3, 13]: +
Free Terpene [3, 14]: −
Free Terpene [3, 15]: +
Free Terpene [3, 16]: +
Colour [4, 17]: Y
Colour [4, 18]: int
Colour [4, 19]: Y
Colour [4, 20]: Y
Colour [4, 21]: W
Colour [4, 22]: int
Colour ([4]; Table 25, no particle, emulsion in 1% Tween 80, overnight): Y
Color ([4]; 37 ° C., Bakers 250 mg/ml): VY
Color ([4]; 37 ° C., Nutrex 100 mg/ml): VY
Color ([4]; 37 ° C., SAF 100 mg/ml): W
Color ([4]; Rt, Bakers 250 mg/ml): Y
Color ([4]; Rt, Nutrex 100 mg/ml): Y
Color ([4]; Rt, SAF 100 mg/ml): W
Colour [4, 23]: Y
Colour [4, 24]: Y
Colour ([4]; Table 27, Baker's YP, emulsion 75 μl): Y
Colour [4, 25]: Y
Colour [4, 26]: Y
Colour [4, 27]: Y
Colour [4, 28]: Y
Colour [4, 29]: W
Colour [4, 30]: W
Colour [4, 31]: W
Colour [4, 32]: W
Colour [4, 33]: W
Colour [4, 34]: W
Colour [4, 35]: W

L-carvone
Free Terpene [1, 5]: −
Free Terpene [1, 6]: −
Free Terpene [1, 7]: −
Free Terpene [1, 8]: −
Free Terpene [1, 9]: +
Vol. loaded (maximal terpene loading in SAF Mannan) [1]: 112.5 µL
% Loaded w/w (maximal terpene loading in SAF Mannan) [1]: 100% w/w
Free Terpene ([2]; L-carvone emulsion 150 μl, 10% Tween-80 0 μl): Sl
Free Terpene ([2]; L-carvone emulsion 150 μl, 10% Tween-80 5 μl): Sl
Free Terpene ([2]; L-carvone emulsion 150 μl, 10% Tween-80 10 μl): Sl
Free Terpene ([2]; L-carvone emulsion 150 μl, 10% Tween-80 33 μl): Sl
Free Terpene [3, 10]: −
Free Terpene [3, 11]: +
Free Terpene [3, 12]: −
Free Terpene [3, 13]: +
Free Terpene [3, 14]: −
Free Terpene [3, 15]: +
Free Terpene [3, 16]: +
Colour [4, 17]: W
Colour [4, 18]: W
Colour [4, 19]: W
Colour [4, 20]: W
Colour [4, 21]: W
Colour [4, 22]: W
Color ([4]; 37 ° C., Bakers 250 mg/ml): W
Color ([4]; 37 ° C., Nutrex 100 mg/ml): W
Color ([4]; 37 ° C., SAF 100 mg/ml): W
Color ([4]; Rt, Bakers 250 mg/ml): W
Color ([4]; Rt, Nutrex 100 mg/ml): W
Color ([4]; Rt, SAF 100 mg/ml): W
Colour ([4]; Table 27, Baker's YP, emulsion 7 μl as printed): W
Colour [4, 23]: W
Colour [4, 24]: W
Colour [4, 25]: W
Colour [4, 26]: W
Colour [4, 27]: W
Colour [4, 28]: W
Colour [4, 29]: W
Colour [4, 30]: W
Colour [4, 31]: W
Colour [4, 32]: W
Colour [4, 33]: W
Colour [4, 34]: W
Colour [4, 35]: W
